Columns and labels:
[1] = Sensory testing by trained panel: saltiness taste; format: in vivo, human; details: panel of 20 trained panelists; test compound at 40 ppm; score on scale −5 (strong masking) to 5 (strong enhancing), 0 = reference water solution with 0.25% NaCl and 0.05% MSG
Description: (§1) Each of Compound 101, Compound 102, Compound 103, Compound 104, and Compound 105 was tested for taste properties, particularly umami and saltiness. A panel of twenty (20) trained panelists evaluated the samples of each test compound at 40 ppm for umami taste properties and saltiness taste properties, and scored the solutions on a scale ranging from −5 to 5 (with −5 denoting a strong masking effect, and 5 denoting a strong enhancing effect, and 0 representing the intensity of a reference water solution containing 0.25% sodium chloride (NaCl) and 0.05% monosodium glutamate (MSG), respectively).

[2] = Sensory testing by trained panel: umami taste; format: in vivo, human; details: panel of 20 trained panelists; test compound at 40 ppm; score on scale −5 (strong masking) to 5 (strong enhancing), 0 = reference water solution with 0.25% NaCl and 0.05% MSG
Description: as §1

C[C@H](CC[C@@H](O[C@@H]1O[C@H](CO)[C@@H](O)[C@H](O)[C@H]1O[C@@H]1O[C@H](CO)[C@@H](O)[C@H](O)[C@H]1O)C(C)(C)O)[C@H]1CC[C@@]2(C)[C@@H]3CC=C4[C@@H](CC[C@H](O[C@@H]5O[C@H](CO[C@@H]6O[C@H](CO)[C@@H](O)[C@H](O)[C@H]6O)[C@@H](O)[C@H](O)[C@H]5O)C4(C)C)[C@]3(C)C(=O)C[C@]12C [Compound 103]
Saltiness [1]: −0.02 | Umami [2]: 0.69

C[C@H](CC[C@@H](O[C@@H]1O[C@H](CO[C@@H]2O[C@H](CO)[C@@H](O)[C@H](O)[C@H]2O)[C@@H](O)[C@H](O)[C@H]1O[C@@H]1O[C@H](CO)[C@@H](O)[C@H](O)[C@H]1O)C(C)(C)O)[C@H]1CC[C@@]2(C)[C@@H]3CC=C4[C@@H](CC[C@H](O[C@@H]5O[C@H](CO[C@@H]6O[C@H](CO)[C@@H](O)[C@H](O)[C@H]6O)[C@@H](O)[C@H](O)[C@H]5O)C4(C)C)[C@]3(C)C(=O)C[C@]12C [Compound 101]
Saltiness [1]: 0.19 | Umami [2]: 0.88

C[C@H](CC[C@@H](O[C@@H]1O[C@H](CO)[C@@H](O)[C@H](O)[C@H]1O)C(C)(C)O)[C@H]1CC[C@@]2(C)[C@@H]3CC=C4[C@@H](CC[C@H](O[C@@H]5O[C@H](CO)[C@@H](O)[C@H](O)[C@H]5O)C4(C)C)[C@]3(C)C(=O)C[C@]12C [Compound 105]
Saltiness [1]: 0.20 | Umami [2]: 0.10

C[C@H](CC[C@@H](O[C@@H]1O[C@H](CO)[C@@H](O)[C@H](O)[C@H]1O[C@@H]1O[C@H](CO)[C@@H](O)[C@H](O)[C@H]1O)C(C)(C)O)[C@H]1CC[C@@]2(C)[C@@H]3CC=C4[C@@H](CC[C@H](O[C@@H]5O[C@H](CO)[C@@H](O)[C@H](O)[C@H]5O)C4(C)C)[C@]3(C)C(=O)C[C@]12C [Compound 104]
Saltiness [1]: −0.08 | Umami [2]: 0.42

C[C@H](CC[C@@H](O[C@@H]1O[C@H](CO[C@@H]2O[C@H](CO)[C@@H](O)[C@H](O)[C@H]2O)[C@@H](O)[C@H](O)[C@H]1O[C@@H]1O[C@H](CO)[C@@H](O)[C@H](O)[C@H]1O)C(C)(C)O)[C@H]1CC[C@@]2(C)[C@@H]3CC=C4[C@@H](CC[C@H](O[C@@H]5O[C@H](CO[C@@H]6O[C@H](CO)[C@@H](O)[C@H](O)[C@H]6O)[C@@H](O)[C@H](O)[C@H]5O[C@@H]5O[C@H](CO)[C@@H](O)[C@H](O)[C@H]5O)C4(C)C)[C@]3(C)C(=O)C[C@]12C [Compound 102]
Saltiness [1]: 0.87 | Umami [2]: 0.47
